# “And” between values parts separate entries of the source, which are not always exact repeats. Equal values may be shown once.
# Columns and labels:
# [1] = Plasma pharmacokinetics after oral multi-dose anatabine polacrilex; type: in vivo, Sprague-Dawley rats; settings: for Anatabine Concentration in rat plasma: dose 0.2 mg/kg, male, individual animals
# Method: This study consisted of two groups of 8 animals each, 4 males and 4 females.
# The vehicle was sterile phosphate buffered saline (PBS) (Amresco). […] Two formulations were prepared; one for each of the two treatment groups. The test compound was formulated for each treatment group just prior to the first dose administration and constantly stirred until dosing was completed (Table 37). Four aliquots of each dose level formulation were collected and stored at −80° C.
# The animals were weighed prior to dosing and received three doses p.o. of test compound at a volume of 5 mL/kg. Blood was collected via the venus plexus (retro-orbital) into tubes containing (K2) EDTA. No more than 0.5 mL was collected per time point.
# Sample preparation. Plasma samples were treated with three volumes of methanol containing internal standard at 1 μM (R,S)-Antabine-2,4,5,6-d4), incubated 10 min at 4° C., and centrifuged. The amount of the test agent in the supernatant was determined by LC/MS/MS.
# Analysis. Samples were analyzed by LC/MS/MS using an Agilent 6410 mass spectrometer coupled with an Agilent 1200 high pressure liquid chromatography (HPLC) and a CTC PAL chilled autosampler, all controlled by MassHunter software (Agilent). After separation on a Hydrophilic interaction liquid chromatography (HILIC) HPLC column (Sepax) using an acetonitrile-ammonium acetate/acetic acid gradient system, peaks were analyzed by mass spectrometry (MS) using ESI ionization in multiple reaction monitoring (MRM) mode. MassHunter software was used to calculate the concentration of the test compounds in samples from the peak area using the appropriate calibration curves.
# Descriptive statistics were calculated for all pharmacokinetic parameters. Elimination half-lives (t1/2) were calculated by linear regression of logarithmically transformed plasma concentration data for each period between doses and following the final dose.
# Total areas under the plasma concentration curves (AUC) and under the first moment curves (AUMC) were calculated using linear trapezoidal summation across all concentration time points as well as for intervals between each dose administration and following the final dose. […] Mean absorption times (MAT) were calculated according to the following relation: […]
# nAChR α4/β2 = molecular target: T1, nAChR α4/β2 (Homo sapiens, UniProt P17787+P43681); test: nAChR α4/β2 channel agonist assay (FLIPR); type: cell-based; settings: 0.3-1000 μM
# T1 construct: host or cells: HEK293 cells, transient
# T1 sequence (P43681 29-627): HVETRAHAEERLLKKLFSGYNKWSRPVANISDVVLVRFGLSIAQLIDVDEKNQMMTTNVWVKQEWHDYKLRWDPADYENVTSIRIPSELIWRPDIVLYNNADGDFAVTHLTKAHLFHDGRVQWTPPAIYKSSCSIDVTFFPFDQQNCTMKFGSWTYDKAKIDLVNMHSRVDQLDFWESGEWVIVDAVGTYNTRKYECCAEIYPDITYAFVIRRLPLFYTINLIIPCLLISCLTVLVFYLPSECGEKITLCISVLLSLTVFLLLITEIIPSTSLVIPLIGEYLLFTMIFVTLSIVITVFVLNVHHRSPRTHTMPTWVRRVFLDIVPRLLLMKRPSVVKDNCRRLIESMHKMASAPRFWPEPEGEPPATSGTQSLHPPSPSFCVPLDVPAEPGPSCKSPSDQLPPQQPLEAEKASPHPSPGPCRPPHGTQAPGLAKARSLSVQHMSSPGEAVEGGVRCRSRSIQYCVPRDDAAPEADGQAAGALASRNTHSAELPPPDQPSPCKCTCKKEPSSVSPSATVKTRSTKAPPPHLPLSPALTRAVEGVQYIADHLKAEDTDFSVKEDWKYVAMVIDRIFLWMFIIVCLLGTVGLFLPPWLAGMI
# T1 sequence (P17787 26-502): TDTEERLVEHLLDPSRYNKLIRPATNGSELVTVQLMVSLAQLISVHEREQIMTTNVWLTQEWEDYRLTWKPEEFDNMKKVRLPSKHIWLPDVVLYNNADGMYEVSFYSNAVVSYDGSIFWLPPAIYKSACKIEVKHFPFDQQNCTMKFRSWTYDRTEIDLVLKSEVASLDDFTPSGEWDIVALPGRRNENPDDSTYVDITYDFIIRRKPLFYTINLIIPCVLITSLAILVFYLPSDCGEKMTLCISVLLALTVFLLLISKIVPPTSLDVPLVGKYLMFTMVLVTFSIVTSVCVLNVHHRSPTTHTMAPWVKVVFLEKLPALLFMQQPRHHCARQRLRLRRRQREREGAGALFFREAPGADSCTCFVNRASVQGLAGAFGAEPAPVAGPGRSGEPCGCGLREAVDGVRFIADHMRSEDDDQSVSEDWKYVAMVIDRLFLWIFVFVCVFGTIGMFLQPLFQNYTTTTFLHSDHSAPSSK
# Method: Briefly, cells were incubated with […] dye for 30 min at 37° C.
# IL-1β = test: LPS-induced IL-1β release in whole human blood; type: cell-based
# Method: Whole human blood was treated with LPS to stimulate inflammatory responses. […] The inflammatory molecule IL-1β was measured after 16 hours.
# autoimmune thyroiditis = test: Experimental Autoimmune Thyroiditis (Example 16A): thyroid histopathology; type: in vivo, mice; settings: 0.05 mg/ml in drinking water (approx. 12.5 mg/kg/day); day 21; p=0.05
# Method: (§1) Thyroiditis was induced by injection of thyroglobulin emulsified in complete Freund's adjuvant […]. On days 0 and 7, female mice received subcutaneous injection of 100 μg thyroglobulin (2 injections of 50 μg each). Control mice drank water. […] Mice were sacrificed on day 21.
# Thyroid glands were removed. One lobe was fixed in formalin for histopathology. One lobe was frozen for immunohistochemistry. The extent of lymphocytic infiltration and destruction of the thyroid gland was assessed digitally. Initially, the entire thyroid lobe was examined. […] The final score was expressed as the percent of the thyroid area infiltrated by lymphocytes and damaged. The results are shown graphically in FIG. 42. […] Photomicrographs of hematoxylin- and eosin-stained thyroids from control and anatabine-treated mice are shown in FIG. 43A (control) and FIG. 43B (anatabine-treated).
# [2] = test system: T cells, antigen presentation; test: Experimental Autoimmune Thyroiditis (Example 16A): lymphoid typing by flow cytometry; type: in vivo, mice; settings: p=0.0143
# Method: as §1
# Cervical lymph nodes were removed for lymphoid typing by flow cytometry. Spleen and peritoneal macrophages were removed for ex vivo stimulation.
# [3] = Anatabine 0.6 mg/kg, female rats, mean
# [4] = Anatabine 0.6 mg/kg, male and female combined, mean
# [5] = Anatabine 0.6 mg/kg, male rats, mean
# [6] = Anatabine 6.0 mg/kg, female rats, mean
# [7] = Anatabine 6.0 mg/kg, male and female combined, mean
# [8] = Anatabine 6.0 mg/kg, male rats, mean
# [9] = all data combined (overall), mean
# [10] = both treatment groups combined, female rats, mean
# [11] = females, 6.0 mg/kg BW group (3 x 2.0 mg/kg p.o.)
structure (smiles),measurement,setting,value
"C1=CCC(c2cccnc2)NC1 (racemic) [Anatabine, 1,2,3,6-tetrahydro-[2,3′]bipyridinyl]",AUC0→∞,[1]; [3],0.29 µg·h/mL
same,MAT0→4 (mean absorption time),[1]; [3],0.53 h
same,"t1/2, 0→4 (elimination half-life after first dose)",[1]; [3],2.06 h
same,"t1/2, terminal",[1]; [3],1.80 h
same,MAT0→4 (mean absorption time),[1]; [4],0.61 h
same,MTT0→4 (mean transit time),[1]; [4],3.06 h
same,AUC0→∞,[1]; [5],0.28 µg·h/mL
same,MAT0→4 (mean absorption time),[1]; [5],0.71 h
same,"t1/2, terminal",[1]; [5],1.78 h
same,"Cp, max (1)","[1]; Anatabine 6.0 mg/kg, female rats, after dose 1, mean",0.26 µg/mL
same,MAT0→4 (mean absorption time),[1]; [6],0.30 h
same,"t1/2, 0→4 (elimination half-life after first dose)",[1]; [6],1.82 h
same,MAT0→4 (mean absorption time),[1]; [7],0.52 h
same,MTT0→4 (mean transit time),[1]; [7],2.97 h
same,MAT0→4 (mean absorption time),[1]; [8],0.73 h
same,"t1/2, 0→4 (elimination half-life after first dose)",[1]; [8],1.76 h
same,concentration at 30 min,"[1]; Sprague-Dawley, rat, plasma, oral, 2 mg/kg BW, dose group 2, female, 30 min, mean",0.16 µg/mL
same,concentration at 60 min,"[1]; Sprague-Dawley, rat, plasma, oral, 2 mg/kg BW, dose group 2, female, 60 min, mean",0.129 µg/mL
same,concentration at 235 min,"[1]; Sprague-Dawley, rat, plasma, oral, 2 mg/kg BW, dose group 2, female, 235 min, mean",0.044 µg/mL
same,concentration at 270 min,"[1]; Sprague-Dawley, rat, plasma, oral, 2 mg/kg BW, dose group 2, female, 270 min, mean",0.316 µg/mL
same,concentration at 300 min,"[1]; Sprague-Dawley, rat, plasma, oral, 2 mg/kg BW, dose group 2, female, 300 min, mean",0.234 µg/mL
same,concentration at 475 min,"[1]; Sprague-Dawley, rat, plasma, oral, 2 mg/kg BW, dose group 2, female, 475 min, mean",0.192 µg/mL
same,concentration at 540 min,"[1]; Sprague-Dawley, rat, plasma, oral, 2 mg/kg BW, dose group 2, female, 540 min, mean",0.386 µg/mL
same,concentration at 600 min,"[1]; Sprague-Dawley, rat, plasma, oral, 2 mg/kg BW, dose group 2, female, 600 min, mean",0.325 µg/mL
same,concentration at 720 min,"[1]; Sprague-Dawley, rat, plasma, oral, 2 mg/kg BW, dose group 2, female, 720 min, mean",0.208 µg/mL
same,MAT0→4 (mean absorption time),[1]; [9],0.56 h
same,MTT0→4 (mean transit time),[1]; [9],3.01 h
same,"t1/2, 0→4 (elimination half-life after first dose)",[1]; [9],1.93 h
same,MAT0→4 (mean absorption time),[1]; [10],0.42 h
same,MTT0→4 (mean transit time),[1]; [10],2.87 h
same,"t1/2, 0→4 (elimination half-life after first dose)",[1]; [10],1.94 h
same,MAT0→4 (mean absorption time),"[1]; both treatment groups combined, male rats, mean",0.72 h
same,Anatabine Concentration in rat plasma,[1]; 30 min,<LOQ
same,Anatabine Concentration in rat plasma,[1]; 235 min,<LOQ
same,Anatabine Concentration in rat plasma,[1]; 475 min,<LOQ
same,Anatabine Concentration in rat plasma,[1]; 600 min,<LOQ
same,Anatabine Concentration in rat plasma,[1]; 720 min,<LOQ
same,Avg. Conc. of Anatabine in plasma,"[1]; dose group 0.2, combined male and female, 30 min, mean",36 ng/mL
same,Avg. Conc. of Anatabine in plasma,"[1]; dose group 0.2, combined male and female, 60 min, mean",31 ng/mL
same,Avg. Conc. of Anatabine in plasma,"[1]; dose group 0.2, combined male and female, 235 min, mean",10 ng/mL
same,Avg. Conc. of Anatabine in plasma,"[1]; dose group 0.2, combined male and female, 270 min, mean",26 ng/mL
same,Avg. Conc. of Anatabine in plasma,"[1]; dose group 0.2, combined male and female, 300 min, mean",27 ng/mL
same,Avg. Conc. of Anatabine in plasma,"[1]; dose group 0.2, combined male and female, 475 min, mean",11 ng/mL
same,Avg. Conc. of Anatabine in plasma,"[1]; dose group 0.2, combined male and female, 540 min, mean",30 ng/mL
same,Avg. Conc. of Anatabine in plasma,"[1]; dose group 0.2, combined male and female, 600 min, mean",26 ng/mL
same,Avg. Conc. of Anatabine in plasma,"[1]; dose group 0.2, combined male and female, 720 min, mean",13 ng/mL
same,Avg. Conc. of Anatabine in plasma,"[1]; dose group 0.2, female, 30 min, mean",37 ng/mL
same,Avg. Conc. of Anatabine in plasma,"[1]; dose group 0.2, female, 60 min, mean",35 ng/mL
same,Avg. Conc. of Anatabine in plasma,"[1]; dose group 0.2, female, 235 min, mean",12 ng/mL
same,Avg. Conc. of Anatabine in plasma,"[1]; dose group 0.2, female, 270 min, mean",26 ng/mL
same,Avg. Conc. of Anatabine in plasma,"[1]; dose group 0.2, female, 300 min, mean",34 ng/mL
same,Avg. Conc. of Anatabine in plasma,"[1]; dose group 0.2, female, 475 min, mean",8 ng/mL
same,Avg. Conc. of Anatabine in plasma,"[1]; dose group 0.2, female, 540 min, mean",34 ng/mL
same,Avg. Conc. of Anatabine in plasma,"[1]; dose group 0.2, female, 600 min, mean",28 ng/mL
same,Avg. Conc. of Anatabine in plasma,"[1]; dose group 0.2, female, 720 min, mean",12 ng/mL
same,Avg. Conc. of Anatabine in plasma,"[1]; dose group 0.2, male, 30 min, mean",33 ng/mL
same,Avg. Conc. of Anatabine in plasma,"[1]; dose group 0.2, male, 60 min, mean",30 ng/mL
same,Avg. Conc. of Anatabine in plasma,"[1]; dose group 0.2, male, 235 min, mean",11 ng/mL
same,Avg. Conc. of Anatabine in plasma,"[1]; dose group 0.2, male, 270 min, mean",26 ng/mL
same,Avg. Conc. of Anatabine in plasma,"[1]; dose group 0.2, male, 300 min, mean",26 ng/mL
same,Avg. Conc. of Anatabine in plasma,"[1]; dose group 0.2, male, 475 min, mean",18 ng/mL
same,Avg. Conc. of Anatabine in plasma,"[1]; dose group 0.2, male, 540 min, mean",38 ng/mL
same,Avg. Conc. of Anatabine in plasma,"[1]; dose group 0.2, male, 600 min, mean",29 ng/mL
same,Avg. Conc. of Anatabine in plasma,"[1]; dose group 0.2, male, 720 min, mean",12 ng/mL
same,Avg. Conc. of Anatabine in plasma,"[1]; dose group 2, combined male and female, 30 min, mean",201 ng/mL
same,Avg. Conc. of Anatabine in plasma,"[1]; dose group 2, combined male and female, 60 min, mean",139 ng/mL
same,Avg. Conc. of Anatabine in plasma,"[1]; dose group 2, combined male and female, 235 min, mean",63 ng/mL
same,Avg. Conc. of Anatabine in plasma,"[1]; dose group 2, combined male and female, 300 min, mean",222 ng/mL
same,Avg. Conc. of Anatabine in plasma,"[1]; dose group 2, combined male and female, 600 min, mean",237 ng/mL
same,Avg. Conc. of Anatabine in plasma,"[1]; dose group 2, combined male and female, 720 min, mean",194 ng/mL
same,Avg. Conc. of Anatabine in plasma,"[1]; dose group 2, male, 30 min, mean",243 ng/mL
same,Avg. Conc. of Anatabine in plasma,"[1]; dose group 2, male, 60 min, mean",165 ng/mL
same,Avg. Conc. of Anatabine in plasma,"[1]; dose group 2, male, 235 min, mean",72 ng/mL
same,Avg. Conc. of Anatabine in plasma,"[1]; dose group 2, male, 270 min, mean",303 ng/mL
same,Avg. Conc. of Anatabine in plasma,"[1]; dose group 2, male, 300 min, mean",183 ng/mL
same,Avg. Conc. of Anatabine in plasma,"[1]; dose group 2, male, 475 min, mean",97 ng/mL
same,Avg. Conc. of Anatabine in plasma,"[1]; dose group 2, male, 540 min, mean",226 ng/mL
same,Avg. Conc. of Anatabine in plasma,"[1]; dose group 2, male, 600 min, mean",151 ng/mL
same,Avg. Conc. of Anatabine in plasma,"[1]; dose group 2, male, 720 min, mean",203 ng/mL
same,"Cp, max, final value",[1]; [11],0.3748 ± 0.1229 µg/mL
same,"Cp, max, initial value",[1]; [11],0.2598 ± 0.0354 µg/mL
same,"Cp, min(2)","[1]; females, 6.0 mg/kg BW group, 6 mg/kg",0.18 ± 0.031 µg/mL and 0.18 ± 0.0307 µg/mL
same,agonist activity,nAChR α4/β2,full agonist activity
same,IL-1β production over time,IL-1β; whole human blood + LPS (Example 15),rapid and continuous effect on the suppression
same,accumulation of IL-1β,"IL-1β; whole human blood + LPS, 16 hours (Example 13)",reduced accumulation of IL-1β
same,"IL-1β, area under the dose-response curve","IL-1β; whole human blood + LPS, 16 hours (Example 14)",reduced accumulation of IL-1β
same,severity of thyroiditis (percent of thyroid area infiltrated and damaged),autoimmune thyroiditis,less severe thyroiditis than control mice
same,activated T cells vs control,[2]; cervical lymph nodes,fewer activated T cells
same,regulatory T cells vs control,[2]; cervical lymph nodes,more regulatory T cells
same,regulatory T cells vs control,"[2]; cervical lymph nodes, listed as anatabine",fewer T regulatory cells than control mice
same,ability to present antigens vs control,[2],a lower ability to present antigens
